Data as given in ChEMBL document CHEMBL1201862, “PubChem BioAssay data set” (2004).
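Exposure lasted 48 hours, with cells grown in 96-well plates and compounds tested at five concentrations. GI50 is the concentration that inhibits growth by half.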 The source made the active and inactive calls. Cut-off read from the data, not from the text of the source: active = GI50 up to about 1.1 µM and inactive = higher.

Experiments:
Experiment in all cases: DTP human tumour cell line panel, 48 h
KM12 = tested on: KM12
M14 = tested on: M14
UACC-62 = tested on: UACC-62
IGROV-1 = tested on: IGROV-1
MOLT-4 = tested on: MOLT-4
HCT-116 = tested on: HCT-116
UO-31 = tested on: UO-31
A498 = tested on: A498
CCRF-CEM = tested on: CCRF-CEM
786-0 = tested on: 786-0
SF-539 = tested on: SF-539
HOP-62 = tested on: HOP-62
RXF 393 = tested on: RXF 393
SN12C = tested on: SN12C
A549 = tested on: A549
CAKI-1 = tested on: CAKI-1
K562 = tested on: K562
LOX IMVI = tested on: LOX IMVI
TK-10 = tested on: TK-10

Measured: GI50

Cc1ccccc1-n1c(=O)sc2c(=O)n(-c3ccccc3)c(=S)[nH]c21
inactive: KM12 > 100 µM | M14 > 100 µM | UACC-62 > 100 µM | IGROV-1 > 100 µM | MOLT-4 > 100 µM | HCT-116 > 100 µM | UO-31 > 100 µM | A498 > 100 µM | CCRF-CEM 47.3 µM | 786-0 > 100 µM | SF-539 > 100 µM | HOP-62 > 100 µM | RXF 393 > 100 µM | SN12C > 100 µM | A549 > 100 µM | CAKI-1 > 100 µM | K562 > 100 µM

COC(=O)C(=O)C(C(=O)C(=O)Nc1ccc(F)cc1)c1nc2ccc([N+](=O)[O-])cc2nc1O (stereo unspecified)
inactive: KM12 > 100 µM | M14 > 100 µM | IGROV-1 > 100 µM | HCT-116 > 100 µM | UO-31 > 100 µM | A498 > 100 µM | CCRF-CEM > 100 µM | 786-0 > 100 µM | LOX IMVI > 100 µM | SF-539 > 100 µM | HOP-62 > 100 µM | RXF 393 > 100 µM | SN12C > 100 µM | A549 > 100 µM | TK-10 > 100 µM | CAKI-1 > 100 µM | K562 > 100 µM

O=C(CSSCC(=O)OCCS(=O)(=O)Nc1ccc(Br)cc1)OCCS(=O)(=O)Nc1ccc(Br)cc1
inactive: KM12 13.3 µM | M14 12.8 µM | UACC-62 13 µM | IGROV-1 17.3 µM | MOLT-4 3.11 µM | UO-31 28.6 µM | A498 11.8 µM | CCRF-CEM 7.66 µM | 786-0 > 10 µM | LOX IMVI 7.18 µM | SF-539 10.2 µM | HOP-62 > 10 µM | RXF 393 3.23 µM | SN12C 18.7 µM | A549 19 µM | TK-10 20.7 µM | CAKI-1 2.83 µM | K562 10.4 µM

COC(=O)C(=O)C(C(=O)C(=O)Nc1ccc(OC)cc1[N+](=O)[O-])c1nc2ccc([N+](=O)[O-])cc2nc1O (stereo unspecified)
inactive: KM12 > 100 µM | M14 > 100 µM | UACC-62 > 100 µM | IGROV-1 > 100 µM | MOLT-4 > 100 µM | HCT-116 > 100 µM | UO-31 > 100 µM | A498 > 100 µM | CCRF-CEM > 100 µM | 786-0 > 100 µM | LOX IMVI > 100 µM | HOP-62 > 100 µM | RXF 393 > 100 µM | SN12C > 100 µM | A549 > 100 µM | TK-10 > 100 µM | CAKI-1 > 100 µM | K562 > 100 µM

COc1cc(/C=N/N=C(\N)NO)cc(Cl)c1O
inactive: KM12 78 µM | M14 33.4 µM | UACC-62 42.4 µM | IGROV-1 69.7 µM | MOLT-4 50.2 µM | HCT-116 55.7 µM | UO-31 23.9 µM | A498 34.4 µM | CCRF-CEM 38.1 µM | 786-0 43.7 µM | LOX IMVI 31 µM | SF-539 34.4 µM | HOP-62 35.7 µM | RXF 393 11.5 µM | SN12C 48.8 µM | A549 41.8 µM | CAKI-1 26.9 µM | K562 53.2 µM

CCCCCCCC(CC(=O)NC(CO)C(=O)NC(CO)CC(C)C)OC(=O)CC(CCCCCCC)OC(=O)CC(CCCCCCC)OC1OC(C)C(O)C(OC2OC(C)C(OC(C)=O)C(O)C2O)C1O (stereo unspecified)
inactive: KM12 3.55 µM | M14 3.67 µM | UACC-62 6.34 µM | IGROV-1 10.7 µM | MOLT-4 2.38 µM | HCT-116 4.84 µM | UO-31 15.4 µM | A498 11.3 µM | CCRF-CEM 3.7 µM | 786-0 5.6 µM | SF-539 11 µM | HOP-62 17.1 µM | RXF 393 3.76 µM | SN12C 6.49 µM | A549 11.2 µM | TK-10 16.1 µM | CAKI-1 15.2 µM | K562 4.61 µM

O=C1c2ccccc2C(=O)c2sc(Nc3ccccc3C(F)(F)F)nc21
inactive: KM12 10.2 µM | M14 21.7 µM | UACC-62 11.6 µM | IGROV-1 12.5 µM | MOLT-4 3.45 µM | HCT-116 28.6 µM | UO-31 12.1 µM | A498 15.3 µM | CCRF-CEM 3.79 µM | 786-0 16.4 µM | LOX IMVI 25.1 µM | SF-539 19.9 µM | HOP-62 14 µM | RXF 393 20.8 µM | SN12C 32.6 µM | A549 21.2 µM | TK-10 19.7 µM | CAKI-1 8.77 µM | K562 3.01 µM

Cc1nc2ccccc2c(=O)n1/N=C(\N=N\c1ccc(Cl)cc1)c1cccc(-c2ccco2)c1
inactive: M14 34.1 µM | UACC-62 22.4 µM | IGROV-1 31.3 µM | MOLT-4 22.4 µM | HCT-116 19.1 µM | UO-31 14.1 µM | A498 61.8 µM | CCRF-CEM 24.6 µM | 786-0 39.6 µM | LOX IMVI 28.9 µM | SF-539 28.6 µM | HOP-62 22.5 µM | RXF 393 20.3 µM | SN12C 29.2 µM | A549 40.6 µM | TK-10 51.5 µM | CAKI-1 25.5 µM | K562 22.3 µM

Cc1cc([N+](=O)[O-])ccc1NC(=O)C(=O)C(C(=O)c1ccccc1-c1ccccc1)C1OC(=O)c2ccccc21 (stereo unspecified)
inactive: KM12 15 µM | M14 14 µM | UACC-62 4.11 µM | IGROV-1 19.6 µM | MOLT-4 15.6 µM | HCT-116 16 µM | UO-31 16.6 µM | A498 > 10 µM | CCRF-CEM 22.9 µM | 786-0 16.1 µM | SF-539 9.02 µM | RXF 393 4.85 µM | SN12C 15.8 µM | A549 10.8 µM | TK-10 17.8 µM | CAKI-1 23.8 µM | K562 25.4 µM

CCN(CC)/[N+]([O-])=N/O
inactive: KM12 > 100 µM | M14 > 100 µM | UACC-62 > 100 µM | IGROV-1 > 100 µM | MOLT-4 > 100 µM | HCT-116 > 100 µM | UO-31 > 100 µM | A498 > 100 µM | CCRF-CEM > 100 µM | LOX IMVI > 100 µM | SF-539 > 100 µM | HOP-62 > 100 µM | RXF 393 > 100 µM | SN12C > 100 µM | A549 > 100 µM | TK-10 > 100 µM | CAKI-1 > 100 µM | K562 > 100 µM

O[C@H]1[C@H]2[C@H](O)CCCN2C[C@H]1O [TRIDOLGOSIR]
inactive: KM12 > 100 µM | M14 > 100 µM | UACC-62 > 100 µM | IGROV-1 > 100 µM | MOLT-4 > 100 µM | HCT-116 > 100 µM | UO-31 > 100 µM | A498 > 100 µM | CCRF-CEM 85.3 µM | 786-0 > 100 µM | LOX IMVI > 100 µM | SF-539 > 100 µM | HOP-62 > 100 µM | RXF 393 > 100 µM | SN12C > 100 µM | A549 > 100 µM | TK-10 > 100 µM | CAKI-1 > 100 µM
